Experimental data from patent US6002002A, “Anti-ischaemic hydroxylamine derivatives and pharmaceutical compositions” (Biorex Research & Development Co., priority 1995, dated 1999).

How the values were obtained:
anaesthetized rats = experiment: Reperfusion-induced arrhytmia (ventricular tachycardia and fibrillation) after LAD coronary occlusion in anaesthetized rats; survival; assay type: in vivo; conditions: rat, 1 mg/kg i.v. 5 minutes before pressing LAD coronary artery; 5 min ischaemia, 10 min reperfusion
Method: The reperfusion-induced arrhytmia (ventricular tachycardia, KT and ventricuiar fibrillation, KF) was tested on anaesthetized rats. Myocardial ischaemia was induced by pressing the coronary artery for 5 minutes followed by 10 minutes reperfusion of the heart. The ECG was permanently monitored and the change of mean period of KT and KF by the effect of active materials was measured in the first 3 minutes of reperfusion. Survival was also monitored. The compounds were administered i.v. 5 minutes before pressing the LAD coronary artery in a dosis of 1 mg/kg.
Experimental results obtained by administering some representative compounds of the invention are listed below: […]

[1] = test system: isolated rabbit thoracal aorta; experiment: in vitro vasorelaxation on isolated rabbit thoracal aorta; assay type: cell-based; conditions: Oryctolagus cuniculus
Method: The vasorelaxant effect of the compounds of the invention was tested in vitro on isolated rabbit thoracal aorta according to Am. J. Physiol. 257:, 1327-1333 (1989).

platelet aggregation = experiment: Inhibition of ADP-induced platelet aggregation in platelet-rich preparates from human venal blood; assay type: cell-based; conditions: concentration inhibiting the aggregation in 50%, read-out: antiaggregation EC50
Method: To the samples sodium citrate was added and 10 minutes later centrifuged with 1000 rpm.

Row | Compound | Survival % (anaesthetized rats) [%] | EC50 [1] [µM] | EC50 (platelet aggregation) [µM]
1 | O=C(NOCC(O)CN1CCCCC1)Nc1cccc(Cl)c1 (stereo not shown) [Example 7, N-(3-chlorophenyl)-N'-(2-hydroxy-3-piperidino-propoxy)-urea] | 86 | 100 | 900
2 | CCCCCCNC(=O)NOCC(O)CN1CCCCC1 (stereo not shown) [Example 6, N-n-hexyl-N'-(2-hydroxy-3-piperidino-propoxy)-urea] | 100 | 190 | 1500
3 | CCOC(=O)[N-]c1c[n+](N2CCOCC2)no1 [Molsidomin, reference compound] | – | – | 1500
4 | O=C(NOCC(O)CN1CCCCC1)NC1CCCCC1 (stereo not shown) [Example 5, N-cyclohexyl-N'-(2-hydroxy-3-piperidino-propoxy)-urea] | 67 | – | –
5 | CC(C)COCC(CN(Cc1ccccc1)c1ccccc1)N1CCCC1 (stereo not shown) [Bepridyl, reference compound] | – | 83 | –
6 | CCCNC(=O)NOCC(O)CN1CCCCC1 (stereo not shown) [Example 4, N-n-propyl-N'-(2-hydroxy-3-piperidino-propoxy)-urea] | 67 | – | –
7 | O=C(NOCC(O)CN1CCCCC1)Nc1cccc([N+](=O)[O-])c1 (stereo not shown) [Example 19, N-(3-nitrophenyl)-N'-(2-hydroxy-3-piperidino-propoxy)-urea] | – | 38 | 340
8 | CCCCCCNC(=O)NOCCCN1CCCCC1 [Example 16, N-n-hexyl-N'-(3-piperidino-propoxy)-urea] | 83 | 450 | 710
9 | CC(C)(C)N(CC(O)CONC(=O)NC1CCCCC1)C(=O)NC1CCCCC1 (stereo not shown) [Example 15, N-cyclohexyl-N'-{2-hydroxy-3-[N-(cyclohexyl-carbamoyl)-N-tert-butylamino]-propoxy}-urea] | 60 | – | –
10 | CCCCCCCNC(=O)NOCC(O)CN1CCCCC1 (stereo not shown) [Example 23, N-heptyl-N'-(2-hydroxy-3-piperidino-propoxy)-urea] | 80 | 190 | 430
